Data taken from the NIST ThermoML archive (doi:10.1016/j.jct.2017.03.033).

Assay: molar heat capacity at constant pressure
Settings: Flow calorimetry

CC(C)C [2-methylpropane]
Settings | molar heat capacity at constant pressure [J/K/mol]
353.87 K, 10990 kPa, Liquid | 150.71
353.87 K, 11500 kPa, Liquid | 150.42
353.88 K, 2000 kPa, Liquid | 166.17
353.88 K, 3510 kPa, Liquid | 160.94
353.88 K, 7510 kPa, Liquid | 153.15
353.88 K, 12010 kPa, Liquid | 149.9
353.89 K, 5510 kPa, Liquid | 157.05
353.89 K, 6510 kPa, Liquid | 155.42
353.9 K, 1540 kPa, Liquid | 168.38
353.9 K, 4000 kPa, Liquid | 160.01
353.9 K, 7990 kPa, Liquid | 152.75
363.86 K, 2090 kPa, Liquid | 174.19
363.91 K, 2520 kPa, Liquid | 171.93
363.92 K, 5030 kPa, Liquid | 162.8
363.92 K, 6510 kPa, Liquid | 159.43
363.92 K, 8020 kPa, Liquid | 156.81
363.93 K, 3000 kPa, Liquid | 170.01
363.93 K, 7000 kPa, Liquid | 158.5
363.94 K, 5510 kPa, Liquid | 161.75
363.94 K, 8500 kPa, Liquid | 156.12
363.95 K, 11990 kPa, Liquid | 152.05
363.96 K, 4040 kPa, Liquid | 165.71
363.96 K, 6000 kPa, Liquid | 160.88
363.96 K, 7510 kPa, Liquid | 157.92
363.96 K, 9970 kPa, Liquid | 153.91
363.96 K, 10510 kPa, Liquid | 153.09
363.97 K, 3510 kPa, Liquid | 167.22
363.97 K, 8990 kPa, Liquid | 155.13
363.97 K, 11000 kPa, Liquid | 152.75
363.98 K, 4500 kPa, Liquid | 164.66
363.98 K, 9510 kPa, Liquid | 154.2
364 K, 11540 kPa, Liquid | 152.34
373.85 K, 2530 kPa, Liquid | 186.46
373.85 K, 7050 kPa, Liquid | 164.54
373.87 K, 7520 kPa, Liquid | 163.73
373.89 K, 7980 kPa, Liquid | 162.86
373.89 K, 9480 kPa, Liquid | 160.48
373.9 K, 5520 kPa, Liquid | 169.02
373.9 K, 6000 kPa, Liquid | 167.45
373.9 K, 10000 kPa, Liquid | 159.78
373.91 K, 9020 kPa, Liquid | 161.23
373.92 K, 3010 kPa, Liquid | 182.39
373.92 K, 4500 kPa, Liquid | 172.97
373.92 K, 8520 kPa, Liquid | 162.1
373.93 K, 4020 kPa, Liquid | 175.3
373.94 K, 6520 kPa, Liquid | 166.64
373.95 K, 5020 kPa, Liquid | 171.34
373.95 K, 11010 kPa, Liquid | 158.15
373.95 K, 11470 kPa, Liquid | 157.45
373.95 K, 11990 kPa, Liquid | 157.1
373.97 K, 3530 kPa, Liquid | 179.02
373.98 K, 10490 kPa, Liquid | 158.44
383.2 K, 2550 kPa, Liquid | 209.82
383.21 K, 6010 kPa, Liquid | 173.96
383.26 K, 6520 kPa, Liquid | 171.81
383.3 K, 3960 kPa, Liquid | 188.32
383.32 K, 4990 kPa, Liquid | 179.89
383.34 K, 4500 kPa, Liquid | 183.72
383.35 K, 3010 kPa, Liquid | 201.04
383.42 K, 3490 kPa, Liquid | 193.84
383.44 K, 5490 kPa, Liquid | 177.21
383.92 K, 6990 kPa, Liquid | 170.65
383.92 K, 9990 kPa, Liquid | 163.61
383.93 K, 10490 kPa, Liquid | 161.7
383.93 K, 12090 kPa, Liquid | 159.14
383.94 K, 7980 kPa, Liquid | 168.55
383.94 K, 9460 kPa, Liquid | 164.25
383.94 K, 11010 kPa, Liquid | 160.71
383.94 K, 11570 kPa, Liquid | 159.37
383.95 K, 9030 kPa, Liquid | 164.95
383.96 K, 7520 kPa, Liquid | 169.54
383.97 K, 8470 kPa, Liquid | 166.75
393.93 K, 4520 kPa, Liquid | 197.56
393.95 K, 3560 kPa, Liquid | 222.96
393.96 K, 3090 kPa, Liquid | 248.47
393.99 K, 4980 kPa, Liquid | 192.79
393.99 K, 7000 kPa, Liquid | 177.62
393.99 K, 9000 kPa, Liquid | 170.47
394 K, 8010 kPa, Liquid | 174.6
394 K, 9500 kPa, Liquid | 169.6
394.01 K, 7500 kPa, Liquid | 176.28
394.02 K, 6000 kPa, Liquid | 183.49
394.02 K, 12020 kPa, Liquid | 165.3
394.03 K, 8510 kPa, Liquid | 173.38
394.03 K, 11010 kPa, Liquid | 166.75
394.04 K, 4060 kPa, Liquid | 208.37
394.05 K, 6500 kPa, Liquid | 180.59
394.05 K, 9990 kPa, Liquid | 168.03
394.05 K, 11510 kPa, Liquid | 165.53
394.06 K, 5490 kPa, Liquid | 187.33
394.09 K, 10520 kPa, Liquid | 167.28
403.41 K, 4080 kPa, Liquid | 248.65
403.41 K, 4510 kPa, Liquid | 227.2
403.43 K, 5070 kPa, Liquid | 209.76
403.44 K, 5520 kPa, Liquid | 201.92
403.49 K, 9990 kPa, Liquid | 173.15
403.5 K, 8500 kPa, Liquid | 177.97
403.51 K, 6500 kPa, Liquid | 192.5
403.51 K, 8000 kPa, Liquid | 180.88
403.52 K, 6010 kPa, Liquid | 195.93
403.53 K, 6990 kPa, Liquid | 189.01
403.53 K, 8990 kPa, Liquid | 175.94
403.53 K, 10960 kPa, Liquid | 172.8
403.53 K, 12000 kPa, Liquid | 170.65
403.54 K, 10490 kPa, Liquid | 172.91
403.55 K, 9510 kPa, Liquid | 174.54
403.55 K, 11490 kPa, Liquid | 172.16
403.58 K, 7550 kPa, Liquid | 184.77
413.26 K, 4120 kPa, Fluid (supercritical or subcritical phases) | 593.02
413.46 K, 4510 kPa, Fluid (supercritical or subcritical phases) | 315.55
413.47 K, 5490 kPa, Fluid (supercritical or subcritical phases) | 230.16
413.48 K, 6060 kPa, Fluid (supercritical or subcritical phases) | 211.86
413.5 K, 4980 kPa, Fluid (supercritical or subcritical phases) | 256.44
413.51 K, 6500 kPa, Fluid (supercritical or subcritical phases) | 205.29
413.51 K, 7000 kPa, Fluid (supercritical or subcritical phases) | 197.5
413.52 K, 11000 kPa, Fluid (supercritical or subcritical phases) | 171.93
413.53 K, 7980 kPa, Fluid (supercritical or subcritical phases) | 188.9
413.53 K, 8490 kPa, Fluid (supercritical or subcritical phases) | 186.05
413.53 K, 10480 kPa, Fluid (supercritical or subcritical phases) | 174.77
413.54 K, 7520 kPa, Fluid (supercritical or subcritical phases) | 191.28
413.54 K, 10010 kPa, Fluid (supercritical or subcritical phases) | 176.92
413.54 K, 11510 kPa, Fluid (supercritical or subcritical phases) | 170.01
413.54 K, 11940 kPa, Fluid (supercritical or subcritical phases) | 169.43
413.55 K, 8990 kPa, Fluid (supercritical or subcritical phases) | 180.93
413.56 K, 9510 kPa, Fluid (supercritical or subcritical phases) | 178.9
